We go through two molecules from patent publication US12600931B2, “Microfluidic cell culture plate for air-liquid interface and 3D cultured tissue applications” (priority 2020, dated 2026).

In test [1] the test system is HCoV-NL63. In kind it is cell-based. The following applies: 20 μM CM vs untreated/vehicle, 48 and 96 h p.i., particularly MOI=0.005, qualitative, scatter limits statistical significance.
Test [2] relates to HCoV-NL63 in Calu-3 cells. The following applies: reported; cited from earlier work.
Test [3] has as its system IAV in human primary bronchial epithelial cells. As to conditions: reported; cited from earlier work.
The test system of test [4] is A/Hong Kong/8/68 H3N2. In kind it is cell-based, influenza A virus.
Test [5] relates to A/WSN/33 strain of IAV. Format: cell-based, influenza A virus.
Test [6] deals with A/Hong Kong/8/68 H3N2. Format: cell-based, influenza A virus. The source holds these as a separate data set.
Test [7] deals with A/WSN/33 strain of IAV. In kind it is cell-based, influenza A virus. This is another data set of the same source.

“Also recorded” adds a separate entry of the source. Counter-ions that a name gives are not always drawn. Like-named read-outs stand apart in the source and are kept apart here.

With `CN(C)C(=O)COC(=O)Cc1ccc(OC(=O)c2ccc(NC(=N)N)cc2)cc1` [camostat mesylate, Camostat mesylate], the “viral copy number (RT-qPCR, apical wash)” value in test [1] is “observed reduction in viral copies”; in test [1] (listed as CM) it was “reduces viral copy number”. The “infection by HCoV-NL63 in Calu-3 cells” value in test [2] was “partially block infection”. In test [3], the “infection by IAV in human primary bronchial epithelial cells” value is given as “partially block infection”.

Consider `CCC(CC)O[C@@H]1C=C(C(=O)O)C[C@H](N)[C@H]1NC(C)=O` [oseltamivir, Oseltamivir carboxylate], for which, in test [4], the “influenza replication (viral copies, RT-qPCR)” value was “significantly reduced influenza replication” and the “viral copies in apical wash in response to oseltamivir dose” value is on record as “marked decrease in viral copies; also recorded: reduce viral copies”. Besides, the “effect of oseltamivir on barrier function (TEER)” value in test [5] is on record as “protective effect on barrier function”. In test [6], the “virus-induced disruption to barrier function and epithelial tight junction formation” value is “prevented virus-induced disruption to barrier function and epithelial tight junction formation”. For the same molecule, the “viral titers (qRT-PCR)” value in test [7] is “reduction in viral titers”.
